target: T1, human full-length MKNK1 (Homo sapiens, UniProt Q9BUB5, T385D); test: MKNK1 kinase high ATP assay (TR-FRET); assay type: biochemical; details: high ATP (2 mM final), 15 min preincubation with enzyme, GST-MKNK1 (T344D)
T1 construct: GST (N); purchased Carna Biosciences 02-145; host or cells: insect cells (baculovirus expression system)
Description: MKNK1-inhibitory activity at high ATP of compounds of the present invention after their preincubation with MKNK1 was quantified employing the TR-FRET-based MKNK1 high ATP assay as described in the following paragraphs.
A recombinant fusion protein of Glutathione-S-Transferase (GST, N-terminally) and human full-length MKNK1 (amino acids 1-424 and T344D of accession number BAA 19885.1), expressed in insect cells using baculovirus expression system and purified via glutathione sepharose affinity chromatography, was purchased from Carna Biosciences (product no 02-145) and used as enzyme. As substrate for the kinase reaction the biotinylated peptide biotin-Ahx-IKKRKLTRRKSLKG (C-terminus in amide form) was used, which can be purchased e.g. from the company Biosyntan (Berlin-Buch, Germany).
For the assay 50 nL of a 100fold concentrated solution of the test compound in DMSO was pipetted into a black low volume 384well microtiter plate (Greiner Bio-One, Frickenhausen, Germany), 2 μL of a solution of MKNK1 in aqueous assay buffer [50 mM HEPES pH 7.5, 5 mM MgCl2, 1.0 mM dithiothreitol, 0.005% (v/v) Nonidet-P40 (Sigma)] was added and the mixture was incubated for 15 min at 22° C. to allow pre-binding of the test compounds to the enzyme before the start of the kinase reaction. Then the kinase reaction was started by the addition of 3 μL of a solution of adenosine-tri-phosphate (ATP, 3.3 mM=>final conc. in the 5 μL assay volume is 2 mM) and substrate (0.1 μM=>final conc. in the 5 μL assay volume is 0.06 μM) in assay buffer and the resulting mixture was incubated for a reaction time of 30 min at 22° C. The concentration of MKNK1 was adjusted depending of the activity of the enzyme lot and was chosen appropriate to have the assay in the linear range, typical concentrations were in the range of 0.003 μg/mL. The reaction was stopped by the addition of 5 μL of a solution of TR-FRET detection reagents (5 nM streptavidine-XL665 [Cisbio Bioassays, Codolet, France] and 1 nM anti-ribosomal protein S6 (pSer236)-antibody from Invitrogen [#44921G] and 1 nM LANCE EU-W1024 labeled ProteinG [Perkin-Elmer, product no. AD0071]) in an aqueous EDTA-solution (100 mM EDTA, 0.1% (w/v) bovine serum albumin in 50 mM HEPES pH 7.5).
The resulting mixture was incubated for 1 h at 22° C. to allow the formation of complex between the phosphorylated biotinylated peptide and the detection reagents. Subsequently the amount of phosphorylated substrate was evaluated by measurement of the resonance energy transfer from the Eu-chelate to the streptavidine-XL. Therefore, the fluorescence emissions at 620 nm and 665 nm after excitation at 350 nm were measured in a TR-FRET reader, e.g. a Rubystar (BMG Labtechnologies, Offenburg, Germany) or a Viewlux (Perkin-Elmer). The ratio of the emissions at 665 nm and at […] was taken as the measure for the amount of phosphorylated substrate. The data were normalised (enzyme reaction without inhibitor=0% inhibition, all other assay components but no enzyme=100% inhibition).

T1 sequence (Q9BUB5 1-424 isoform Q9BUB5-2 T344D): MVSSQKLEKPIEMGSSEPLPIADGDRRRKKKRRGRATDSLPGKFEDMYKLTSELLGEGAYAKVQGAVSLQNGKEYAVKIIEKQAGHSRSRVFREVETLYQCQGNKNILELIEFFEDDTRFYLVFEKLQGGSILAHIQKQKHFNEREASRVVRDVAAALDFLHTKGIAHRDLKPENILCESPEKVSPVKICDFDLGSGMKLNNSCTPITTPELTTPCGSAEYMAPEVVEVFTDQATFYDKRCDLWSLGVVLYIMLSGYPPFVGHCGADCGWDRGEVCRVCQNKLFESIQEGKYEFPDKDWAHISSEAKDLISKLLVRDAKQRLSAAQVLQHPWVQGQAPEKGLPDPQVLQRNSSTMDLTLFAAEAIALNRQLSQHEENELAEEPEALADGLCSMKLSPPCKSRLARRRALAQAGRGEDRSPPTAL

Row | IC50 [nM] | Structure (SMILES)
1 | 10 | COc1cc2[nH]ncc2cc1Nc1ncnc2sc3c(c12)CCN(C(=O)N1C[C@@H](C)O[C@@H](C)C1)C3 [Example 32, [(2R,6S)-2,6-Dimethylmorpholin-4-yl]{4-[(6-methoxy-1H-indazol-5-yl)amino]-5,8-dihydropyrido[4′,3′:4,5]thieno[2,3-d]pyrimidin-7(6H)-yl}methanone]
2 | 25 | c1nc(Nc2ccc3[nH]ncc3c2)c2c3c(sc2n1)CN(CCN1CCOCC1)CC3 [Example 61, N-(1H-Indazol-5-yl)-7-[2-(morpholin-4-yl)ethyl]-5,6,7,8-tetrahydropyrido[4′,3′:4,5]thieno[2,3-d]pyrimidin-4-amine]
3 | 61 | CSc1cc2[nH]ncc2cc1Nc1ncnc2sc3c(c12)CCN(C(=O)N1CCOCC1)C3 [Example 47, [4-{[6-(Methylsulfanyl)-1H-indazol-5-yl]amino}-5,8-dihydropyrido[4′,3′:4,5]thieno[2,3-d]pyrimidin-7(6H)-yl](morpholin-4-yl)methanone]
4 | 21 | C[C@@H]1CN(C(=O)N2CCc3c(sc4ncnc(Nc5ccc6[nH]ncc6c5)c34)C2)C[C@H](C)O1 [Example 33, [(2R,6S)-2,6-Dimethylmorpholin-4-yl][4-(1H-indazol-5-ylamino)-5,8-dihydropyrido[4′,3′:4,5]thieno[2,3-d]pyrimidin-7(6H)-yl]methanone]
5 | 4 | COc1cc2[nH]ncc2cc1Nc1ncnc2sc3c(c12)CCN(CCCN1CCOCC1)C3 [Example 90, N-(6-Methoxy-1H-indazol-5-yl)-7-[3-(morpholin-4-yl)propyl]-5,6,7,8-tetrahydropyrido[4′,3′:4,5]thieno[2,3-d]pyrimidin-4-amine]
6 | 88 | CN(C)C(=O)N1CCc2c(sc3ncnc(Nc4ccc5[nH]c(=O)sc5c4)c23)C1 [Example 17, N,N-Dimethyl-4-[(2-oxo-2,3-dihydro-1,3-benzothiazol-6-yl)amino]-5,8-dihydropyrido[4′,3′:4,5]thieno[2,3-d]pyrimidine-7(6H)-carboxamide]
7 | 484 | CN(C)C(=O)N1CCc2c(sc3ncnc(Nc4ccn5nccc5c4)c23)C1 [Example 30, N,N-Dimethyl-4-(pyrazolo[1,5-a]pyridin-5-ylamino)-5,8-dihydropyrido[4′,3′:4,5]thieno[2,3-d]pyrimidine-7(6H)-carboxamide]
8 | 18 | CC(C)(C)OC(=O)N1CCc2c(sc3ncnc(Nc4ccc5[nH]ncc5c4)c23)C1 [Example 5, tert-Butyl 4-(1H-indazol-5-ylamino)-5,8-dihydropyrido[4′,3′:4,5]thieno[2,3-d]pyrimidine-7(6H)-carboxylate]
9 | 6 | COc1cc2[nH]ncc2cc1Nc1ncnc2sc3c(c12)CCN(C(=O)CC(F)(F)F)C3 [Example 54, 3,3,3-Trifluoro-1-{4-[(6-methoxy-1H-indazol-5-yl)amino]-5,8-dihydropyrido[4′,3′:4,5]thieno[2,3-d]pyrimidin-7(6H)-yl}propan-1-one]
10 | 113 | CC(C)C(=O)N1CCc2c(sc3ncnc(Nc4ccc5[nH]c(=O)sc5c4)c23)C1 [Example 18, 6-[(7-Isobutyryl-5,6,7,8-tetrahydropyrido[4′,3′:4,5]thieno[2,3-d]pyrimidin-4-yl)amino]-1,3-benzothiazol-2(3H)-one]
11 | 57 | O=C(N1CCOCC1)N1CCc2c(sc3ncnc(Nc4cc5cn[nH]c5cc4Cl)c23)C1 [Example 51, {4-[(6-Chloro-1H-indazol-5-yl)amino]-5,8-dihydropyrido[4′,3′:4,5]thieno[2,3-d]pyrimidin-7(6H)-yl}(morpholin-4-yl)methanone]
12 | 90 | CN1CCC(C(=O)N2CCc3c(sc4ncnc(Nc5ccc6[nH]c(=O)sc6c5)c34)C2)CC1 [Example 66, 6-({7-[(1-Methylpiperidin-4-yl)carbonyl]-5,6,7,8-tetrahydropyrido[4′,3′:4,5]thieno[2,3-d]pyrimidin-4-yl}amino)-1,3-benzothiazol-2(3H)-one]
13 | 32 | CN(C)C(=O)N1CCc2c(sc3ncnc(Nc4ccc5[nH]ncc5c4)c23)C1 [Example 15, 4-(1H-Indazol-5-ylamino)-N,N-dimethyl-5,8-dihydropyrido[4′,3′:4,5]thieno[2,3-d]pyrimidine-7(6H)-carboxamide]
14 | 9 | COc1cc2[nH]ncc2cc1Nc1ncnc2sc3c(c12)CCN(CCN1CCOCC1)C3 [Example 62, N-(6-Methoxy-1H-indazol-5-yl)-7-[2-(morpholin-4-yl)ethyl]-5,6,7,8-tetrahydropyrido[4′,3′:4,5]thieno[2,3-d]pyrimidin-4-amine]
15 | 3 | COc1cc2[nH]ncc2cc1Nc1ncnc2sc3c(c12)CCN(C(=O)C1CCCC1)C3 [Example 91, Cyclopentyl{4-[(6-methoxy-1H-indazol-5-yl)amino]-5,8-dihydropyrido[4′,3′:4,5]thieno[2,3-d]pyrimidin-7(6H)-yl}methanone]
16 | 3 | COc1cc2[nH]ncc2cc1Nc1ncnc2sc3c(c12)CCN(C(=O)N1CCOC[C@H]1C)C3 [Example 96, {4-[(6-Methoxy-1H-indazol-5-yl)amino]-5,8-dihydropyrido[4′,3′:4,5]thieno[2,3-d]pyrimidin-7(6H)-yl}[(3R)-3-methylmorpholin-4-yl]methanone]
17 | 13 | COc1nc2[nH]ncc2cc1Nc1ncnc2sc3c(c12)CCN(C(=O)N1CCOCC1)C3 [Example 52, {4-[(6-Methoxy-1H-pyrazolo[3,4-b]pyridin-5-yl)amino]-5,8-dihydropyrido[4′,3′:4,5]thieno[2,3-d]pyrimidin-7(6H)-yl}(morpholin-4-yl)methanone]
18 | 2 | COc1cc2[nH]ncc2cc1Nc1ncnc2sc3c(c12)CCN(C(=O)CCCS(C)(=O)=O)C3 [Example 9, 1-{4-[(6-Methoxy-1H-indazol-5-yl)amino]-5,8-dihydropyrido[4′,3′:4,5]thieno[2,3-d]pyrimidin-7(6H)-yl}-4-(methylsulfonyl)butan-1-one]
19 | 87 | COc1nc2[nH]ncc2cc1Nc1ncnc2sc3c(c12)CCNC3 [Example 45, N-(6-Methoxy-1H-pyrazolo[3,4-b]pyridin-5-yl)-5,6,7,8-tetrahydropyrido[4′,3′:4,5]thieno[2,3-d]pyrimidin-4-amine]
20 | 47 | CC(C)(C)OC(=O)N1CCc2c(sc3ncnc(Nc4cnc5[nH]ncc5c4)c23)C1 [Example 6, tert-Butyl 4-(1H-pyrazolo[3,4-b]pyridin-5-ylamino)-5,8-dihydropyrido[4′,3′:4,5]thieno[2,3-d]pyrimidine-7(6H)-carboxylate]
21 | 157 | CS(=O)(=O)N1CCc2c(sc3ncnc(Nc4ccn5nccc5c4)c23)C1 [Example 36, 7-(Methylsulfonyl)-N-(pyrazolo[1,5-a]pyridin-5-yl)-5,6,7,8-tetrahydropyrido[4′,3′:4,5]thieno[2,3-d]pyrimidin-4-amine]
22 | 3 | COc1cc2[nH]ncc2cc1Nc1ncnc2sc3c(c12)CCN(S(C)(=O)=O)C3 [Example 37, N-(6-Methoxy-1H-indazol-5-yl)-7-(methylsulfonyl)-5,6,7,8-tetrahydropyrido[4′,3′:4,5]thieno[2,3-d]pyrimidin-4-amine]
23 | 42 | COc1nc2[nH]ncc2cc1Nc1ncnc2sc3c(c12)CCN(C(=O)C(C)C)C3 [Example 55, 1-{4-[(6-Methoxy-1H-pyrazolo[3,4-b]pyridin-5-yl)amino]-5,8-dihydropyrido[4′,3′:4,5]thieno[2,3-d]pyrimidin-7(6H)-yl}-2-methylpropan-1-one]
24 | 87 | CSc1cc2[nH]ncc2cc1Nc1ncnc2sc3c(c12)CCN(C(=O)N(C)C)C3 [Example 46, N,N-Dimethyl-4-{[6-(methylsulfanyl)-1H-indazol-5-yl]amino}-5,8-dihydropyrido[4′,3′:4,5]thieno[2,3-d]pyrimidine-7(6H)-carboxamide]
25 | 2 | COc1cc2[nH]ncc2cc1Nc1ncnc2sc3c(c12)CCN(C(=O)N(C)CCC(F)(F)F)C3 [Example 99, 4-[(6-Methoxy-1H-indazol-5-yl)amino]-N-methyl-N-(3,3,3-trifluoropropyl)-5,8-dihydropyrido[4′,3′:4,5]thieno[2,3-d]pyrimidine-7(6H)-carboxamide]

From patent publication US20170107229A1, “SUBSTITUTED TETRAHYDROPYRIDOTHIENOPYRIMIDINES” (BAYER PHARMA AKTIENGESELLSCHAFT, priority 2014, published 2017)
